The structures appear in SMILES notation. Read-outs that look alike come from different tables or passages of the source.

The subject of assay [1] is beet armyworm (BAW; Spodoptera exigua: Lepidoptera). Nature of the assay: 128-well diet tray assay on beet armyworm (BAW 50). It is filed as in vivo. The conditions noted are these: for pest or weed control at 50 µg/cm2, 50 µg/cm2: Spodoptera exigua, 144 h, read-out: BAW 50 ug/cm2. The essentials: (§1)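 Percent larval mortality after six days was the endpoint. Higher-throughput plates used eggs, 12 μg compound per well and 29° C darkness; trays used second instar larvae, a 50 μg/cm^2 dose and 25° C with 14:10 light cycle.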

For assay [2] the test system is unchanged. Nature of the assay: 96-well microtiter plate-based high throughput (HTS) diet bioassay on beet armyworm (BAW HTS). The assay is classed as in vivo. Particulars: for pest or weed control at 12 µg/well, 12 µg/well: Spodoptera exigua, 144 h, read-out: BAW HTS. Put shortly: as §1
Where [3] appears, read: 128-well diet tray assay, 50 μg/cm^2 of test compound on diet, second instar BAW larvae, mortality class.
[4] abbreviates: 96-well HTS diet assay, BAW eggs, 12 μg test compound per well, mortality at 6 d post-treatment, mortality class.
[5] abbreviates: 96-well microtiter plate HTS diet assay, 12 μg test compound per well, BAW eggs, mortality at 6 d post-treatment, mortality class.
[6] abbreviates: 128-well diet tray assay, second instar BAW larvae, 50 μg/cm^2 of test compound on diet, mortality class.

In the case of `COC1C(C)OC(ON=Cc2ccc(-c3ncnc(-c4ccc(OC(F)(F)F)cc4)n3)cc2)C(OC)C1OC` (stereo not drawn) [Compound 158], in assay [1] (setting [3]), the “BAW 50 ug/cm2” value is “A (the compound was tested and at least 50 percent mortality was observed)”. In addition, the “BAW HTS” value in assay [2] (setting [4]) is “A (the compound was tested and at least 50 percent mortality was observed)”; in assay [2] (setting [5]) it was “A (the compound was tested and at least 50 percent mortality was observed)”.

Consider `COC1C(C)OC(ON=Cc2ccc(-c3cncc(-c4ccc(OC(F)(F)F)cc4)n3)cc2)C(OC)C1OC` (stereo not drawn) [Compound 159], for which the “BAW 50 ug/cm2” value in assay [1] (setting [3]) was “A (the compound was tested and at least 50 percent mortality was observed)”. The “BAW HTS” value was “A (the compound was tested and at least 50 percent mortality was observed)” in assay [2] (setting [4]); “A (the compound was tested and at least 50 percent mortality was observed)” in assay [2] (setting [5]).

As to `CCOC1C(OC)C(C)OC(ON=Cc2ccc(N3CCN(c4ccc(OC(F)(F)F)cc4)CC3)nc2)C1OC` (stereo not drawn) [Compound 160], the “BAW 50 ug/cm2” value in assay [1] (setting [3]) is “A (the compound was tested and at least 50 percent mortality was observed)”. The “BAW HTS” value in assay [2] (setting [4]) was “A (the compound was tested and at least 50 percent mortality was observed)”; in assay [2] (setting [5]) it was “A (the compound was tested and at least 50 percent mortality was observed)”.

With `CCOC1C(OC)C(C)OC(ON=Cc2ccc(N3CCN(c4ccc(C(F)(F)F)cn4)CC3)cc2)C1OC` (stereo not drawn) [Compound 161], the “BAW 50 ug/cm2” value in assay [1] (setting [3]) was “A (the compound was tested and at least 50 percent mortality was observed)”. Also, the “BAW HTS” value in assay [2] (setting [4]) was “A (the compound was tested and at least 50 percent mortality was observed)”; in assay [2] (setting [5]), “A (the compound was tested and at least 50 percent mortality was observed)”.

Consider `CCCOC1C(OC)C(C)OC(ON=Cc2ccc(N3CCN(c4ccc(OC(F)(F)F)cc4)CC3)cc2)C1OC` (stereo not drawn) [Compound 162], for which the “BAW 50 ug/cm2” value in assay [1] (setting [3]) is “A (the compound was tested and at least 50 percent mortality was observed)”. Also, the “BAW HTS” value in assay [2] (setting [4]) is “B (either (1) the compound was tested and less than 50 percent mortality was observed or (2) the compound was not tested)”; in assay [2] (setting [5]) it was “B (either (1) the compound was tested and less than 50 percent mortality was observed or (2) the compound was not tested)”.

For `CCOC1C(OC)C(C)OC(ON=Cc2ccc(-c3ncc(-c4ccc(SC)cc4)cn3)cc2)C1OC` (stereo not drawn) [Compound 163], the “BAW 50 ug/cm2” value in assay [1] (setting [3]) is “B (either (1) the compound was tested and less than 50 percent mortality was observed or (2) the compound was not tested)”. Moreover, the “BAW HTS” value was “B (either (1) the compound was tested and less than 50 percent mortality was observed or (2) the compound was not tested)” in assay [2] (setting [4]); “B (either (1) the compound was tested and less than 50 percent mortality was observed or (2) the compound was not tested)” in assay [2] (setting [5]).

Consider `COC1C(C)OC(ON=C(C)c2ccc(-c3cn(-c4ccc(OC(F)(F)F)cc4)cn3)s2)C(OC)C1OC` (stereo not drawn) [Compound 164], for which the “BAW 50 ug/cm2” value in assay [1] (setting [3]) is “B (either (1) the compound was tested and less than 50 percent mortality was observed or (2) the compound was not tested)”. Further, the “BAW HTS” value in assay [2] (setting [4]) is “B (either (1) the compound was tested and less than 50 percent mortality was observed or (2) the compound was not tested)”; in assay [2] (setting [5]), “B (either (1) the compound was tested and less than 50 percent mortality was observed or (2) the compound was not tested)”.

For the compound `COC1C(C)OC(ON=C(C)c2ccc(-c3cn(-c4ccc(OC(F)(F)F)cc4)cn3)cc2)C(OC)C1OC` (stereo not drawn) [Compound 165], the “BAW 50 ug/cm2” value in assay [1] (setting [3]) was “A (the compound was tested and at least 50 percent mortality was observed)”. The “BAW HTS” value is “B (either (1) the compound was tested and less than 50 percent mortality was observed or (2) the compound was not tested)” in assay [2] (setting [4]); “B (either (1) the compound was tested and less than 50 percent mortality was observed or (2) the compound was not tested)” in assay [2] (setting [5]).

With `COC1C(C)OC(ON=C(C)c2cccc(-c3cn(-c4ccc(OC(F)(F)F)cc4)cn3)c2)C(OC)C1OC` (stereo not drawn) [Compound 166], the “BAW 50 ug/cm2” value in assay [1] (setting [3]) is “A (the compound was tested and at least 50 percent mortality was observed)”. Also, the “BAW HTS” value in assay [2] (setting [4]) was “B (either (1) the compound was tested and less than 50 percent mortality was observed or (2) the compound was not tested)”; in assay [2] (setting [5]) it was “B (either (1) the compound was tested and less than 50 percent mortality was observed or (2) the compound was not tested)”.

As for `COC1C(C)OC(ON=C(C)c2ccc(Cl)c(-c3cn(-c4ccc(OC(F)(F)F)cc4)cn3)c2)C(OC)C1OC` (stereo not drawn) [Compound 167], in assay [1] (setting [3]), the “BAW 50 ug/cm2” value was “A (the compound was tested and at least 50 percent mortality was observed)”. The “BAW HTS” value is “B (either (1) the compound was tested and less than 50 percent mortality was observed or (2) the compound was not tested)” in assay [2] (setting [4]); “B (either (1) the compound was tested and less than 50 percent mortality was observed or (2) the compound was not tested)” in assay [2] (setting [5]).

For the compound `COC1C(C)OC(ON=C(C)c2ccc(F)c(-c3cn(-c4ccc(OC(F)(F)F)cc4)cn3)c2)C(OC)C1OC` (stereo not drawn) [Compound 168], in assay [1] (setting [3]), the “BAW 50 ug/cm2” value is “A (the compound was tested and at least 50 percent mortality was observed)”. For the same compound, the “BAW HTS” value in assay [2] (setting [4]) is “A (the compound was tested and at least 50 percent mortality was observed)”; in assay [2] (setting [5]), “A (the compound was tested and at least 50 percent mortality was observed)”.

On to `CCO[C@@H]1[C@@H](OC)[C@H](C)O[C@@H](O/N=C2\CCc3cc(-c4ncn(-c5ccc(OC(F)(F)F)cc5)n4)ccc32)[C@@H]1OC` [Compound 170, 5-[1-(4-trifluoromethoxyphenyl)-1H-[1,2,4]triazol-3-yl]-indan-1-one O-((2S,3R,4R,5S,6S)-4-ethoxy-3,5-dimethoxy-6-methyl-tetrahydropyran-2-yl)-oxime], for which the “BAW 50 ug/cm2” value in assay [1] (setting [3]) is “A (the compound was tested and at least 50 percent mortality was observed)”. Further, the pest or weed control at 50 µg/cm2, 50 µg/cm2 in assay [1] (setting [6]) was over 50%. The “BAW HTS” value in assay [2] (setting [5]) was “B (either (1) the compound was tested and less than 50 percent mortality was observed or (2) the compound was not tested)”. For the same compound, in assay [2] (setting [4]), the pest or weed control at 12 µg/well, 12 µg/well was under 50%.

As to `CO[C@@H]1[C@@H](OC)[C@H](C)O[C@@H](ONC(=O)c2ccc(-c3cn(-c4ccc(OC(F)(F)F)cc4)cn3)cc2)[C@@H]1OC` [Compound 171, 4-[1-(4-trifluoromethoxyphenyl)-1H-imidazol-4-yl]-N-((2S,3R,4R,5S,6S)-3,4,5-trimethoxy-6-methyl-tetrahydropyran-2-yloxy)-benzamide], in assay [1] (setting [3]), the “BAW 50 ug/cm2” value is “A (the compound was tested and at least 50 percent mortality was observed)”. Moreover, the pest or weed control at 50 µg/cm2, 50 µg/cm2 in assay [1] (setting [6]) was over 50%. Besides, the “BAW HTS” value in assay [2] (setting [5]) is “A (the compound was tested and at least 50 percent mortality was observed)”. Further, in assay [2] (setting [4]), the pest or weed control at 12 µg/well, 12 µg/well is over 50%.

For the compound `CO[C@@H]1[C@@H](OC)[C@H](C)O[C@@H](OC(=O)Nc2ccc(C3=NN(c4cccc(Cl)c4)CC3)cc2)[C@@H]1OC` [Compound 172], in assay [1] (setting [3]), the “BAW 50 ug/cm2” value was “A (the compound was tested and at least 50 percent mortality was observed)”. The “BAW HTS” value in assay [2] (setting [4]) was “B (either (1) the compound was tested and less than 50 percent mortality was observed or (2) the compound was not tested)”; in assay [2] (setting [5]) it was “B (either (1) the compound was tested and less than 50 percent mortality was observed or (2) the compound was not tested)”.

Turning to `CO[C@@H]1[C@@H](OC)[C@H](C)O[C@@H](OC(=O)Nc2ccc(-c3cn(-c4ccc(OC(F)(F)F)cc4)cn3)cc2)[C@@H]1OC` [Compound 173], the “BAW 50 ug/cm2” value in assay [1] (setting [3]) is “A (the compound was tested and at least 50 percent mortality was observed)”. Moreover, the “BAW HTS” value in assay [2] (setting [4]) was “A (the compound was tested and at least 50 percent mortality was observed)”; in assay [2] (setting [5]), “A (the compound was tested and at least 50 percent mortality was observed)”.

With `CO[C@@H]1[C@@H](OC)[C@H](C)O[C@H](OC(=O)Nc2ccc(-c3cn(-c4ccc(OC(F)(F)F)cc4)cn3)cc2)[C@@H]1OC` [Compound 174], the “BAW 50 ug/cm2” value in assay [1] (setting [3]) is “A (the compound was tested and at least 50 percent mortality was observed)”. The “BAW HTS” value in assay [2] (setting [4]) was “A (the compound was tested and at least 50 percent mortality was observed)”; in assay [2] (setting [5]), “A (the compound was tested and at least 50 percent mortality was observed)”.

`CCCCO[C@@H]1[C@@H](OC)[C@H](C)O[C@@H](OC(=O)Nc2ccc(-c3cn(-c4ccc(OC(F)(F)F)cc4)cn3)cc2)[C@@H]1OC` [Compound 175]: in assay [1] (setting [3]), the “BAW 50 ug/cm2” value is “A (the compound was tested and at least 50 percent mortality was observed)”. Further, the “BAW HTS” value was “A (the compound was tested and at least 50 percent mortality was observed)” in assay [2] (setting [4]); “A (the compound was tested and at least 50 percent mortality was observed)” in assay [2] (setting [5]).

Turning to `CO[C@@H]1[C@@H](OC)[C@H](C)O[C@@H](OC(=S)Nc2ccc(-c3cn(-c4ccc(OC(F)(F)F)cc4)cn3)cc2)[C@@H]1OC` [Compound 176], in assay [1] (setting [3]), the “BAW 50 ug/cm2” value is “A (the compound was tested and at least 50 percent mortality was observed)”. Besides, in assay [1], the pest or weed control at 50 µg/cm2, 50 µg/cm2 was over 50%. The “BAW HTS” value in assay [2] (setting [5]) is “B (either (1) the compound was tested and less than 50 percent mortality was observed or (2) the compound was not tested)”. Also, the pest or weed control at 12 µg/well, 12 µg/well in assay [2] was under 50%.
